Test results published in ChEMBL document CHEMBL1123219, “Functional cholesteryl binding agents: synthesis, characterization, and evaluation of antibody binding to modified phospholipid vesicles” (J Med Chem, 1986).

Experiments:
[1] = organism: Homo sapiens; assay: Compound was tested for human IgG protein binding at 100 ug/mL
[2] = organism: Homo sapiens; assay: Compound was tested for human IgG protein binding at 1 mg/mL
[3] = organism: Homo sapiens; assay: Compound was tested for human IgG protein stability at 100 ug/mL; format: functional

| Binding [1] [%] | Binding [2] [%] | SMILES | Stability [3] [%] |
| --- | --- | --- | --- |
| 61.1 | 39.5 | CC(C)CCCC(C)C1CCC2C3CC=C4CC(OCCCCCCNC(=O)c5cccc(N6C(=O)C=CC6=O)c5)CCC4(C)C3CCC12C (stereo not drawn) | 86 |
| 55.9 | 31.9 | CC(C)CCCC(C)C1CCC2C3CC=C4CC(OCCCCCCN=C=S)CCC4(C)C3CCC12C (stereo not drawn) | 86.5 |
| 60.4 | 43.3 | CC(C)CCCC(C)C1CCC2C3CC=C4CC(OCCCCCCSCc5ccc(C(=O)ON6C(=O)CCC6=O)cc5)CCC4(C)C3CCC12C (stereo not drawn) | 91.8 |
| 69.5 | 46 | CC(C)CCCC(C)C1CCC2C3CC=C4CC(OCCCCCCC(=O)ON5C(=O)CCC5=O)CCC4(C)C3CCC12C (stereo not drawn) | 91 |
| 77.5 | 40.3 | CC(C)CCCC(C)C1CCC2C3CC=C4CC(OCCCCCC(=O)ON5C(=O)CCC5=O)CCC4(C)C3CCC12C (stereo not drawn) | 94.1 |
| 58.7 | 31.9 | CC(C)CCCC(C)C1CCC2C3CC=C4CC(OCCCCCCO)CCC4(C)C3CCC12C (stereo not drawn) | 86.4 |
